Values of other authors in publication PMC7931078 (Molecules, 2021).
In brackets after ≈: the same amount, converted by molar mass.

Test system: Mtb
Design: method as in PMID 29487031
Conditions: first line treatment regimen; cited from earlier work

## CC[C@@H](CO)NCCN[C@@H](CC)CO [ethambutol]
  MIC: 15 µM (≈ 3.06 µg/mL)
